Experimental data reported in patent US10428081B2, “EGFR inhibitor, preparation method and use thereof” (Shanghai Hansoh Biomedical Co., Ltd., priority 2014, dated 2019).

How the values were obtained:
[1] = molecular target: exon 20 T790M mutant-type EGFR enzyme (Homo sapiens, UniProt P00533, T790M); test: Enzymologic experiment of T790M mutant-type EGFR (TR-FRET); type: biochemical; settings: for IC50: T790M EGFR enzyme, TR-FRET, ATP 1 to 10 uM; for Selectivity of wild-type/mutant-type: ratio WT IC50 / T790M IC50, enzyme
Sequence of exon 20 T790M mutant-type EGFR enzyme (P00533 25-1210 T790M): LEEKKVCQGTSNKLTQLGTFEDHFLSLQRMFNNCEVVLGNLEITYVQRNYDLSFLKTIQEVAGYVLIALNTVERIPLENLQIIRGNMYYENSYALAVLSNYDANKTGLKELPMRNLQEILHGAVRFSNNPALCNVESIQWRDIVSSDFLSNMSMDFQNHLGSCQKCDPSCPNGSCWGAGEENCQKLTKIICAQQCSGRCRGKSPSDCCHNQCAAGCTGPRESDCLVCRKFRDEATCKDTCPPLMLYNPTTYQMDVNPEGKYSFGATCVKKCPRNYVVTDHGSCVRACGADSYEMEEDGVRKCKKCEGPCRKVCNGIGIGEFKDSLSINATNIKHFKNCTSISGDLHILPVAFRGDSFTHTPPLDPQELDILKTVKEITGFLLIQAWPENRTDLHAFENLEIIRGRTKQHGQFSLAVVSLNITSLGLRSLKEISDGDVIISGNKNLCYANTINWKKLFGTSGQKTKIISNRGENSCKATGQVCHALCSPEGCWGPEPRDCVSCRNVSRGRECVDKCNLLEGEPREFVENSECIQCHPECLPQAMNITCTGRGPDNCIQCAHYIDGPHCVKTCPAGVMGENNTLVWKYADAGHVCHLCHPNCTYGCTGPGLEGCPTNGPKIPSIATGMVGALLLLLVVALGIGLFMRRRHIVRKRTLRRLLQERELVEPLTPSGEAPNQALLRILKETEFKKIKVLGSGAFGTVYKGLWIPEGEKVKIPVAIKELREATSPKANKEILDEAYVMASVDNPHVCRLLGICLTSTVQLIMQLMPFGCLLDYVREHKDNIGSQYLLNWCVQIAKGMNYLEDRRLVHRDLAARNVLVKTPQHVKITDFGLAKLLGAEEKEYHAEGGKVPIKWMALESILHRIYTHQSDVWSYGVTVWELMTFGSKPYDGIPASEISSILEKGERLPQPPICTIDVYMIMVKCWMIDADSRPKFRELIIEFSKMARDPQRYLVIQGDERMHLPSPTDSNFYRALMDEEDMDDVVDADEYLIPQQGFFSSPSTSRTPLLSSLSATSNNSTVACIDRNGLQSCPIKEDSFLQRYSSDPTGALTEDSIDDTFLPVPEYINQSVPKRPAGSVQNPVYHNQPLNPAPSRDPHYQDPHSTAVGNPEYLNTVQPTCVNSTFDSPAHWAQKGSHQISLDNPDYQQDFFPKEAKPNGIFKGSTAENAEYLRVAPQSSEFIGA
Outline: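 Compound dilutions preincubated 10 min at room temperature; reaction ended with EDTA, then labeled antibody added for 1 h at room temperature. Inhibition rates derived from TR-FRET fluorescence signal, and IC50 obtained by curve fitting across concentrations.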

wild-type EGFR enzyme = wild-type EGFR enzyme (Homo sapiens, UniProt P00533); test: Enzymologic experiment of wild-type (WT) EGFR (TR-FRET); type: biochemical; settings: ATP 0.1 to 5 uM
Sequence of wild-type EGFR enzyme (P00533 25-1210): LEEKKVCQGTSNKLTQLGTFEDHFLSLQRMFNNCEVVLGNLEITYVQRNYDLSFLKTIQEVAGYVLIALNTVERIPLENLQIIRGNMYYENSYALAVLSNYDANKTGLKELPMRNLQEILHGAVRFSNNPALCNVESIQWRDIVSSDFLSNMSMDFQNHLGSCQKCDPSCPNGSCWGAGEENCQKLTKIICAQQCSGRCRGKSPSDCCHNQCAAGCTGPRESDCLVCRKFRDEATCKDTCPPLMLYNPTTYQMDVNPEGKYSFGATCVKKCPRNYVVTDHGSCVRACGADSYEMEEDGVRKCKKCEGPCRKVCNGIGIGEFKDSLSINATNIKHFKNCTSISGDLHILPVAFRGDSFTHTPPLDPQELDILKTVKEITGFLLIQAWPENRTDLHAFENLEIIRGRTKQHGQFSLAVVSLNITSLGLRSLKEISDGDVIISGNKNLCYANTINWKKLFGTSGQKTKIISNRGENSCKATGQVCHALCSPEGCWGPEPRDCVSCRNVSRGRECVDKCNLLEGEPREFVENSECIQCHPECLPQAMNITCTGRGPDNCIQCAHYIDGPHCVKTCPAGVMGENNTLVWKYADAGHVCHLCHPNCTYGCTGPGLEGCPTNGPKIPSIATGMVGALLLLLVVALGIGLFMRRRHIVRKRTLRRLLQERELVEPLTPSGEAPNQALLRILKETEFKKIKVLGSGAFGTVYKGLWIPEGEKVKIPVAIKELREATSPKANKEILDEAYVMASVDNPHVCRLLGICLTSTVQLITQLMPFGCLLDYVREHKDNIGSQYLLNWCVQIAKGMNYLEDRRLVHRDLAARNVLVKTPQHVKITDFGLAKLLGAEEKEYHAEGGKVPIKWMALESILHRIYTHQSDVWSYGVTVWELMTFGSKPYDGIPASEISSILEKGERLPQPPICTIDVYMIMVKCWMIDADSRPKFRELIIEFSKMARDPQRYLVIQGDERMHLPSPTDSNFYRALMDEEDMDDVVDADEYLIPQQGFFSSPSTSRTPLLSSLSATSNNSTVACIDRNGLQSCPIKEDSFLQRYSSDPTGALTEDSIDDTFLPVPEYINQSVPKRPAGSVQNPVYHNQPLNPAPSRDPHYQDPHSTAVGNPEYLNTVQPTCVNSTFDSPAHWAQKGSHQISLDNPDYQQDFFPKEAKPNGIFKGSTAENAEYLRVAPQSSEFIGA
Outline: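 Wild-type EGFR (0.1 to 1 nM final) preincubated with serially diluted compound for 10 minutes at room temperature; reaction stopped with EDTA, then labelled antibody added for 1 hour at room temperature. TR-FRET signal converted to inhibition rates; IC50 from curve fitting across concentrations.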

A431 cells = test: Inhibition of A431 cell proliferation (CellTiter-Glo); type: cell-based; settings: Homo sapiens, A-431, 72 h, read-out: EGFR IC50 (nM) A431
Outline: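 Viability read as CellTiter-Glo luminescence; IC50 by curve fitting of inhibition rates.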

NCI-H1975 cells = test: Inhibition of NCI-H1975 cell proliferation (CellTiter-Glo); type: cell-based; settings: for IC50: Homo sapiens, NCI-H1975, 72 h, NCI-H1975 cell proliferation, 72 hours, CellTiter-Glo, read-out: EGFR IC50 (nM) H1975; for Selectivity of wild-type/mutant-type: ratio A431 IC50 / H1975 IC50, cells

Compound	IC50 [1] [nM]	Selectivity of wild-type/mutant-type [1]	IC50 (wild-type EGFR enzyme) [nM]	IC50 (A431 cells) [nM]	IC50 (NCI-H1975 cells) [nM]	Selectivity of wild-type/mutant-type (NCI-H1975 cells)
C=CC(=O)Nc1cc(Nc2nccc(-n3ncc4cc(OC)ccc43)n2)c(OC)cc1N(C)CCN1CCCC1 [Example 137, N-(4-methoxy-5-((4-(5-methoxy-1H-indazol-1-yl)pyrimidin-2-yl)amino)-2-(methyl(2-(pyrrolidin-1-yl)ethyl)amino)phenyl)acrylamide]	1.03	6.13	6.31	406	9.52	42.70
C=CC(=O)Nc1cc(Nc2nccc(-c3c[nH]c4ccccc34)n2)c(OC(F)F)cc1N(C)CCN(C)C [Example 8, N-(5-((4-(1H-indol-3-yl)pyrimidin-2-yl)amino)-4-(difluoromethoxy)-2-((2-(dimethylamino)ethyl)(methyl)amino)phenyl)acrylamide]	0.42	8.8	3.64	56.2	5.21	10.8
C=CC(=O)Nc1cc(Nc2ncc(C(F)(F)F)c(-n3ncc4cc(OC)ccc43)n2)c(OC)cc1N(C)CCN(C)C [Example 49, N-(2-((2-(dimethylamino)ethyl)(methyl)amino)-4-methoxy-5-((4-(5-methoxy-1H-indazol-1-yl)-5-(trifluoromethyl)pyrimidin-2-yl)amino)phenyl)acrylamide]	0.17	37.06	6.3	128	1.93	66.48
C=CC(=O)Nc1cc(Nc2ncc(C(F)(F)F)c(-n3nc(CC)c4cc(C#N)ccc43)n2)c(OC)cc1N(C)CCN(C)C [Example 117, N-(5-((4-(5-cyano-3-ethyl-1H-indazol-1-yl)-5-(trifluoromethyl)pyrimidin-2-yl)amino)-2-((2-(dimethylamino)ethyl)(methyl)amino)-4-methoxyphenyl)acrylamide]	0.61	71.05	43.3	199	29.9	6.65
COc1cc(N(C)CCN(C)C)c(NC(=O)/C=C/CN(C)C)cc1Nc1nccc(-c2cn(C3CC3)c3ccccc23)n1 [Example 122, (E)-N-(5-((4-(1-cyclopropyl-1H-indol-3-yl)pyrimidin-2-yl)amino)-2-((2-(dimethylamino)ethyl)(methyl)amino)-4-methoxyphenyl)-4-(dimethylamino)but-2-enamide]	0.49	17.14	8.4	890	114	7.84
C=CC(=O)Nc1cc(Nc2nccc(-n3ncc4c(OC)cccc43)n2)c(OC)cc1N(C)CCN1CCCC1 [Example 135, N-(4-methoxy-5-((4-(4-methoxy-1H-indazol-1-yl)pyrimidin-2-yl)amino)-2-(methyl(2-(pyrrolidin-1-yl)ethyl)amino)phenyl)acrylamide]	0.46	10.04	4.62	444	7.5	59.19
C=CC(=O)Nc1cc(Nc2nccc(-c3cn(C)c4cc(OC)ccc34)n2)c(OC)cc1N(C)CCNC [Example 127, N-(4-methoxy-5-((4-(6-methoxy-1-methyl-1H-indol-3-yl)pyrimidin-2-yl)amino)-2-(methyl(2-(methylamino)ethyl)amino)phenyl)acrylamide]	0.44	5.23	2.3	88.2	2.98	29.58
C=CC(=O)Nc1cc(Nc2nccc(-c3cn(S(=O)(=O)N(C)C)c4ccccc34)n2)c(OC)cc1N(C)CCN1CCCC1 [Example 142, N-(5-((4-(1-(N,N-dimethylsulfamoyl)-1H-indol-3-yl)pyrimidin-2-yl)amino)-4-methoxy-2-(methyl(2-(pyrrolidin-1-yl)ethyl)amino)phenyl)acrylamide]	0.23	7.83	1.8	119	3.16	37.53
C=CC(=O)Nc1cc(Nc2nccc(-n3ncc4cc(OCCOC)ccc43)n2)c(OC)cc1N(C)CCN1CCCC1 [Example 134, N-(4-methoxy-5-((4-(5-(2-methoxyethoxy)-1H-indazol-1-yl)pyrimidin-2-yl)amino)-2-(methyl(2-(pyrrolidin-1-yl)ethyl)amino)phenyl)acrylamide]	1.85	10.75	19.9	325	12.3	26.45
C=CC(=O)Nc1cc(Nc2nccc(-c3c[nH]c4c(OC)cccc34)n2)c(OC)cc1N(C)CCN(C)C [Example 94, N-(2-((2-(dimethylamino)ethyl)(methyl)amino)-4-methoxy-5-((4-(7-methoxy-1H-indol-3-yl)pyrimidin-2-yl)amino)phenyl)acrylamide]	0.71	1.771	1.26	38.8	3.91	9.93
C=CC(=O)Nc1cc(Nc2nccc(-c3c[nH]c4cc(OC)ccc34)n2)c(OC)cc1N(C)CCN(C)C [Example 97, N-(2-((2-(dimethylamino)ethyl)(methyl)amino)-4-methoxy-5-((4-(6-methoxy-1H-indol-3-yl)pyrimidin-2-yl)amino)phenyl)acrylamide]	0.18	2.78	0.5	141	1.28	109.92
C=CC(=O)Nc1cc(Nc2nccc(-c3cn(C)c4cc(C=C)ccc34)n2)c(OC)cc1N(C)CCN(C)C [Example 96, N-(2-((2-(dimethylamino)ethyl)(methyl)amino)-4-methoxy-5-((4-(1-methyl-6-vinyl-1H-indol-3-yl)pyrimidin-2-yl)amino)phenyl)acrylamide]	1.57	5.67	8.9	324	17.5	18.51
C=CC(=O)Nc1cc(Nc2ncc(C(F)(F)F)c(-n3nc(C4CC4)c4cc(OC)ccc43)n2)c(OC)cc1N(C)CCN(C)C [Example 114, N-(5-((4-(3-cyclopropyl-5-methoxy-1H-indazol-1-yl)-5-(trifluoromethyl)pyrimidin-2-yl)amino)-2-((2-(dimethylamino)ethyl)(methyl)amino)-4-methoxyphenyl)acrylamide]	2.28	18.40	42	122	11.6	10.47
C=CC(=O)Nc1cc(Nc2nccc(-n3ncc4ccc(C#N)cc43)n2)c(OC)cc1N(C)CCN(C)C [Example 112, N-(5-((4-(6-cyano-1H-indazol-1-yl)pyrimidin-2-yl)amino)-2-((2-(dimethylamino)ethyl)(methyl)amino)-4-methoxyphenyl)acrylamide]	3.45	13.61	46.9	257	15.6	16.51
C=CC(=O)Nc1cc(Nc2nccc(-n3nc(C)c4ccc(OC)cc43)n2)c(OC)cc1N(C)CCN(C)C [Example 54, N-(2-((2-(dimethylamino)ethyl)(methyl)amino)-4-methoxy-5-((4-(6-methoxy-3-methyl-1H-indazol-1-yl)pyrimidin-2-yl)amino)phenyl)acrylamide]	0.36	6.14	2.21	71.2	2.75	25.90
C=CC(=O)Nc1cc(Nc2ncc(Cl)c(-c3cn(C)c4ccccc34)n2)c(OC(F)F)cc1N(C)CCN(C)C [Example 5, N-(5-((5-chloro-4-(1-methyl-1H-indol-3-yl)pyrimidin-2-yl)amino)-4-(difluoromethoxy)-2-((2-(dimethylamino)ethyl)(methyl)amino)phenyl)acrylamide]	0.32	2.5	0.8	212	5.9	36
C=CC(=O)Nc1cc(Nc2nccc(-n3cnc4ccccc43)n2)c(OC)cc1N(C)CCN(C)C [Example 120, N-(5-((4-(1H-benzo[d]imidazol-1-yl)pyrimidin-2-yl)amino)-2-((2-(dimethylamino)ethyl)(methyl)amino)-4-methoxyphenyl)acrylamide]	1.05	3.49	3.66	115	4.91	23.44
C=CC(=O)Nc1cc(Nc2nccc(-c3cn(C)c4cc(OC)ccc34)n2)c(OC(F)F)cc1N(C)CCN(C)C [Example 4, N-(4-(difluoromethoxy)-2-((2-(dimethylamino)ethyl)(methyl)amino)-5-((4-(6-methoxy-1-methyl-1H-indol-3-yl)pyrimidin-2-yl)amino)phenyl)acrylamide]	0.39	16.3	6.41	158	10	15.78
